Measurements published in patent US20080119510A1, “Substituted Imidazo [4,5-B] Pyridines As Inhibitors Of Gastric Acid Secretion” (Altana Pharma AG, priority 2004, published 2008).

Key:
[1] = tested on: pentagastrin-stimulated acid secretion of the perfused rat stomach; experiment: Secretion-inhibiting action on the perfused rat stomach (pentagastrin-stimulated acid secretion); type: in vivo; conditions: anesthetized CD rat, dose 3.0 μmol/kg i.d.
Excerpt: In Table A which follows, the influence of the compounds of the formula 1 according to the invention on the pentagastrin-stimulated acid secretion of the perfused rat stomach after intraduodenal administration in vivo is shown.
The abdomen of anesthetized rats (CD rat, female, 200-250 g; 1.5 g/kg i.m. urethane) was opened after tracheotomy by a median upper abdominal incision and a PVC catheter was fixed transorally in the esophagus and another via the pylorus such that the ends of the tubes just projected into the gastric lumen. The catheter leading from the pylorus led outward into the right abdominal wall through a side opening.
After thorough rinsing (about 50-100 ml), warm (37° C.) physiological NaCl solution was continuously passed through the stomach (0.5 ml/min, pH 6.8-6.9; Braun-Unita I). The pH (pH meter 632, glass electrode EA 147; φ=5 mm, Metrohm) and, by titration with a freshly prepared 0.01 N NaOH solution to pH 7 (Dosimat 665 Metrohm), the secreted HCl were determined in the effluent in each case collected at an interval of 15 minutes.
The gastric secretion was stimulated by continuous infusion of […] (=1.65 ml/h) of i.v. pentagastrin (left femoral vein) about 30 min after the end of the operation (i.e. after determination of 2 preliminary fractions). The substances to be tested were administered intraduodenally in a 2.5 ml/kg liquid volume 60 min after the start of the continuous pentagastrin infusion. The body temperature of the animals was kept at a constant 37.8-38° C. by infrared irradiation and heat pads (automatic, stepless control by means of a rectal temperature sensor).

Row | SMILES | Inhibition of acid secretion (%) [1] | melting point
1 | CCc1cccc(C)c1CNc1cc(OC)nc2c1nc(C)n2C [Example 6, 7-(2-Ethyl-6-methylbenzyl)amino-5-methoxy-2,3-dimethyl-3H-imidazo[4,5-b]pyridine] | >30% | 
2 | CCc1cccc(C)c1CNc1cc(C(=O)NCCO)nc2c1nc(C)n2C [Example 5, 7-(2-Ethyl-6-methylbenzyl)amino-5-(2-hydroxyethylaminocarbonyl)-2,3-dimethyl-3H-imidazo[4,5-b]pyridine] | >30% | 
3 | CCc1cccc(C)c1CNc1cc(C(=O)O)nc2c1nc(C)n2C [Example 10, 7-(2-ethyl-6-methylbenzyl)amino-2,3-dimethyl-3H-imidazo[4,5-b]pyridine-5-carboxylic Acid] |  | 235 to 238 °C
4 | CCc1cccc(C)c1CNc1ccnc2c1nc(C)n2C [Example 1, 7-(2-Ethyl-6-methylbenzyl)amino-2,3-dimethyl-3H-imidazo[4,5-b]pyridine] | >30% | 105 to 109 °C
5 | CCc1cccc(C)c1CNc1cc(C(=O)N(C)C)nc2c1nc(C)n2C [Example 2, 5-(Dimethylaminocarbonyl)-7-(2-ethyl-6-methylbenzyl)amino-2,3-dimethyl-3H-imidazo[4,5-b]pyridine] | >30% | 
6 | CCc1cccc(C)c1CNc1cc(C(N)=O)nc2c1nc(C)n2C [Example 3, 5-(Aminocarbonyl)-7-(2-ethyl-6-methylbenzyl)amino-2,3-dimethyl-3H-imidazo[4,5-b]pyridine] | >30% | 
